Measurements from PubChem BioAssay (NCI).
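Interpolation was linear, between the two tested concentrations surrounding the appropriate level; five concentrations were tested over 48 hours in 96-well plates. The concentration for full growth arrest is given as TGI.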

How the values were obtained:
Assay in all cases: NCI anticancer screen, dose series, 48 h
A549 NSCLC = system: A549 NSCLC
OVCAR-4 ovarian = system: OVCAR-4 ovarian
SK-MEL-2 melanoma = system: SK-MEL-2 melanoma
NCI-H23 lung = system: NCI-H23 lung
BT-549 breast = system: BT-549 breast
MDA-MB-435 = system: MDA-MB-435
SR leukemia = system: SR leukemia
SK-MEL-5 melanoma = system: SK-MEL-5 melanoma
NCI-H522 lung = system: NCI-H522 lung
MOLT-4 leukemia = system: MOLT-4 leukemia
MCF7 breast = system: MCF7 breast
UACC-62 melanoma = system: UACC-62 melanoma
HOP-62 NSCLC = system: HOP-62 NSCLC
MDA-N = system: MDA-N
DU-145 prostate = system: DU-145 prostate
HOP-92 NSCLC = system: HOP-92 NSCLC
SF-539 CNS = system: SF-539 CNS
A498 renal = system: A498 renal
SK-MEL-28 melanoma = system: SK-MEL-28 melanoma
786-0 renal = system: 786-0 renal
PC-3 prostate = system: PC-3 prostate
ACHN renal = system: ACHN renal
LOX IMVI melanoma = system: LOX IMVI melanoma
IGROV1 ovarian = system: IGROV1 ovarian
HCC-2998 colon = system: HCC-2998 colon
NCI/ADR-RES ovarian = system: NCI/ADR-RES ovarian
NCI-H460 lung = system: NCI-H460 lung
M14 melanoma = system: M14 melanoma
HL-60(TB) leukemia = system: HL-60(TB) leukemia
EKVX NSCLC = system: EKVX NSCLC
OVCAR-3 ovarian = system: OVCAR-3 ovarian
HCT-15 colon = system: HCT-15 colon
CCRF-CEM leukemia = system: CCRF-CEM leukemia
HS 578T breast = system: HS 578T breast
SF-268 CNS = system: SF-268 CNS
COLO 205 colon = system: COLO 205 colon
K-562 leukemia = system: K-562 leukemia
SF-295 CNS = system: SF-295 CNS
SN12C renal = system: SN12C renal
TK-10 renal = system: TK-10 renal
UACC-257 melanoma = system: UACC-257 melanoma
OVCAR-8 ovarian = system: OVCAR-8 ovarian
RXF 393 renal = system: RXF 393 renal
SNB-75 CNS = system: SNB-75 CNS
MALME-3M melanoma = system: MALME-3M melanoma
NCI-H226 lung = system: NCI-H226 lung
HT29 colon = system: HT29 colon
SNB-19 CNS = system: SNB-19 CNS
HCT-116 colon = system: HCT-116 colon
CAKI-1 renal = system: CAKI-1 renal
U251 CNS = system: U251 CNS
SW-620 colon = system: SW-620 colon
OVCAR-5 ovarian = system: OVCAR-5 ovarian
MDA-MB-231 breast = system: MDA-MB-231 breast
RPMI-8226 leukemia = system: RPMI-8226 leukemia
T-47D breast = system: T-47D breast
KM12 colon = system: KM12 colon
UO-31 renal = system: UO-31 renal

Work on CC(=O)c1cc2c(Br)cccc2oc1=O yielded a TGI (A549 NSCLC) of over 100 µM, a TGI (OVCAR-4 ovarian) of over 100 µM and a TGI (SK-MEL-2 melanoma) of over 100 µM. The TGI (NCI-H23 lung) was over 100 µM, the TGI (BT-549 breast) was over 100 µM and the TGI (MDA-MB-435) was over 100 µM. The TGI (SR leukemia) was over 100 µM, the TGI (SK-MEL-5 melanoma) was over 100 µM and the TGI (NCI-H522 lung) was over 100 µM. It also gave a TGI (MOLT-4 leukemia) of over 100 µM, a TGI (MCF7 breast) of over 100 µM and a TGI (UACC-62 melanoma) of over 100 µM. For the same molecule, the TGI (HOP-62 NSCLC) was over 100 µM, the TGI (MDA-N) was over 100 µM and the TGI (DU-145 prostate) was over 100 µM. It also gave a TGI (HOP-92 NSCLC) of over 100 µM, a TGI (SF-539 CNS) of over 100 µM and a TGI (A498 renal) of over 100 µM. For the same molecule, the TGI (SK-MEL-28 melanoma) was over 100 µM, the TGI (786-0 renal) was over 100 µM and the TGI (PC-3 prostate) was over 100 µM. It also gave a TGI (ACHN renal) of over 100 µM, a TGI (LOX IMVI melanoma) of over 100 µM and a TGI (IGROV1 ovarian) of over 100 µM. It also gave a TGI (HCC-2998 colon) of over 100 µM, a TGI (NCI/ADR-RES ovarian) of over 100 µM and a TGI (NCI-H460 lung) of over 100 µM. The TGI (M14 melanoma) was over 100 µM, the TGI (HL-60(TB) leukemia) was over 100 µM and the TGI (EKVX NSCLC) was over 100 µM. It also gave a TGI (OVCAR-3 ovarian) of over 100 µM, a TGI (HCT-15 colon) of over 100 µM and a TGI (CCRF-CEM leukemia) of over 100 µM. The TGI (HS 578T breast) was over 100 µM, the TGI (SF-268 CNS) was over 100 µM and the TGI (COLO 205 colon) was over 100 µM. The TGI (K-562 leukemia) was over 100 µM, the TGI (SF-295 CNS) was over 100 µM and the TGI (SN12C renal) was over 100 µM. It also gave a TGI (TK-10 renal) of over 100 µM, a TGI (UACC-257 melanoma) of over 100 µM and a TGI (OVCAR-8 ovarian) of over 100 µM. It also gave a TGI (RXF 393 renal) of over 100 µM, a TGI (SNB-75 CNS) of over 100 µM and a TGI (MALME-3M melanoma) of over 100 µM. It also gave a TGI (NCI-H226 lung) of over 100 µM, a TGI (HT29 colon) of over 100 µM and a TGI (SNB-19 CNS) of over 100 µM. For the same molecule, the TGI (HCT-116 colon) was over 100 µM, the TGI (CAKI-1 renal) was over 100 µM and the TGI (U251 CNS) was over 100 µM. It also gave a TGI (SW-620 colon) of over 100 µM, a TGI (OVCAR-5 ovarian) of over 100 µM and a TGI (MDA-MB-231 breast) of over 100 µM. For the same molecule, the TGI (RPMI-8226 leukemia) was over 100 µM and the TGI (T-47D breast) was over 100 µM.
Work on Cc1cc(=O)[nH]c2cc(NC(=O)C(C)NC(=O)C(C)NC(=O)C(C)NC(=O)OC(C)(C)C)ccc12 (stereo unspecified) yielded a TGI (A549 NSCLC) of over 15 µM, a TGI (OVCAR-4 ovarian) of over 15 µM and a TGI (SK-MEL-2 melanoma) of over 15 µM. For the same molecule, the TGI (NCI-H23 lung) was over 15 µM, the TGI (BT-549 breast) was over 15 µM and the TGI (MDA-MB-435) was over 15 µM. For the same molecule, the TGI (SR leukemia) was over 15 µM, the TGI (SK-MEL-5 melanoma) was over 15 µM and the TGI (NCI-H522 lung) was over 15 µM. It also gave a TGI (MOLT-4 leukemia) of over 15 µM, a TGI (MCF7 breast) of over 15 µM and a TGI (UACC-62 melanoma) of over 15 µM. The TGI (HOP-62 NSCLC) was over 15 µM, the TGI (MDA-N) was over 15 µM and the TGI (DU-145 prostate) was over 15 µM. For the same molecule, the TGI (HOP-92 NSCLC) was over 15 µM, the TGI (SF-539 CNS) was over 15 µM and the TGI (A498 renal) was over 15 µM. It also gave a TGI (SK-MEL-28 melanoma) of over 15 µM, a TGI (786-0 renal) of over 15 µM and a TGI (PC-3 prostate) of over 15 µM. For the same molecule, the TGI (KM12 colon) was over 15 µM, the TGI (ACHN renal) was over 15 µM and the TGI (LOX IMVI melanoma) was over 15 µM. It also gave a TGI (IGROV1 ovarian) of over 15 µM, a TGI (HCC-2998 colon) of over 15 µM and a TGI (NCI/ADR-RES ovarian) of over 15 µM. The TGI (UO-31 renal) was over 15 µM, the TGI (NCI-H460 lung) was over 15 µM and the TGI (M14 melanoma) was over 15 µM. It also gave a TGI (HL-60(TB) leukemia) of over 15 µM, a TGI (EKVX NSCLC) of over 15 µM and a TGI (HCT-15 colon) of over 15 µM. The TGI (CCRF-CEM leukemia) was over 15 µM, the TGI (HS 578T breast) was over 15 µM and the TGI (SF-268 CNS) was over 15 µM. For the same molecule, the TGI (COLO 205 colon) was over 15 µM, the TGI (K-562 leukemia) was over 15 µM and the TGI (SF-295 CNS) was over 15 µM. The TGI (SN12C renal) was over 15 µM, the TGI (TK-10 renal) was over 15 µM and the TGI (UACC-257 melanoma) was over 15 µM. The TGI (OVCAR-8 ovarian) was over 15 µM, the TGI (RXF 393 renal) was over 15 µM and the TGI (SNB-75 CNS) was over 15 µM. It also gave a TGI (NCI-H226 lung) of over 15 µM, a TGI (HT29 colon) of over 15 µM and a TGI (SNB-19 CNS) of over 15 µM. The TGI (HCT-116 colon) was over 15 µM, the TGI (CAKI-1 renal) was over 15 µM and the TGI (U251 CNS) was over 15 µM. It also gave a TGI (SW-620 colon) of over 15 µM, a TGI (OVCAR-5 ovarian) of over 15 µM and a TGI (MDA-MB-231 breast) of over 15 µM. The TGI (T-47D breast) was over 15 µM.
